Read-outs that look alike come from different tables or passages of the source. Positions of bridges follow the written chain, without caps; N, C: chain ends. Non-standard residues stand in square brackets, D forms with d. Residues, ends and D or L forms follow the SMILES beside them. dDip = N[C@@H](C(=O)O)C(c1ccccc1)c1ccccc1; dPhe(4-Br) = N[C@H](Cc1ccc(Br)cc1)C(=O)O; 2Nal = N[C@@H](Cc1ccc2ccccc2c1)C(=O)O; d(αMeF) = C[C@@](N)(Cc1ccccc1)C(=O)O; dNMeF = CN[C@H](Cc1ccccc1)C(=O)O; Nle = CCCC[C@H](N)C(=O)O
Experiments:
[1] = biological target: T1, human MC3R (Homo sapiens, UniProt P41968); assay: split-luciferase cAMP sensor assay, agonist mode (measurement window 1), hMC3R; assay type: cell-based; conditions: for Emax: read-out: MC3R cAMP % max activation; for EC50: read-out: MC3R cAMP EC50; for MC4R selectivity vs MC3R: MC4R versus MC3R
T1 construct: expressed in transfected cells; host or cells: HEK-293 cells stably expressing the GScAMP22F split-luciferase cAMP sensor (parent reporter line from Promega); MC3R clone generated in-house, G418 selection
Procedure: (§1) The stable cell lines were grown and maintained in selection media consisting of Dulbecco's modified Eagle media (DMEM) with 4.5 g/l D-glucose, and 4 mM L-glutamine (Thermo Fisher Scientific, Waltham, MA), supplemented with 10% fetal bovine serum, 100 units/ml penicillin, 100 μg/ml streptomycin, 2.5 μg/ml amphotericin B, 200 μg/ml hygromycin B (for positive selection of the GScAMP22f luciferase reporter), and Geneticin™ (G418) 700 μg/ml (for MC3R or MC4R selection). Actual serum concentration during the assay is estimated to be about 1%. Cell line identity is routinely verified by qPCR and MC3R-and MC4R-specific oligonucleotides.
(§2) The assay for the determination of the cAMP response in live cells was described previously. […] Cells were seeded at a density of 20,000 cells per well using 384-well poly-D lysine-coated, clear bottom, and black-wall assay plates (Corning Inc. Corning, NJ). Cells were allowed to attach to the plates for 18 to 24 h after which growth media was removed and 20 μl of 4% D-luciferin (Promega) in CO2 independent, serum-free medium (Thermo Fisher Scientific) was added to each well. […] Intracellular cAMP levels were measured using an FDSS 7000EX Functional Drug Screening System (Hamamatsu Photonics, Hamamatsu, Japan) in the Center for Chemical Genomics at the Life Sciences Institute. This instrument allowed the in-line addition of test-peptides and receptor agonists while simultaneously acquiring the luminescence signal from live cells. […] A submaximal forskolin (20 μM) concentration was also included to serve as a normalization reference to account for cell number variations and differences in assay transducer efficiency between cell lines.
(§3) With this set up it was possible to evaluate the direct effect of the test-peptides on the MC3R and MC4R cell lines during measurement window 1, while the antagonist profile in the presence of EC90 α-MSH was determined on measurement window 2. […] EC50 or IC50 potency values were determined by non-linear regression by fitting the data to a sigmoid four-parameter variable slope model using the GraphPad Prism version 8.4 software package (San Diego CA).

[2] = biological target: T2, human MC4R (Homo sapiens, UniProt P32245); assay: split-luciferase cAMP sensor assay, agonist mode (measurement window 1), hMC4R; assay type: cell-based; conditions: for Emax: read-out: MC4R cAMP % max activation; for EC50: read-out: MC4R cAMP EC50
T2 construct: host or cells: HEK-293 cells stably expressing the GScAMP22F split-luciferase cAMP sensor and hMC4R, G418 selection
Procedure: as §1, §2, §3

[3] = agonist mode, hMC3R stable cell line
[4] = agonist mode, hMC4R stable cell line
[5] = % maximal activation, agonist mode

T1 sequence (P41968 whole entry): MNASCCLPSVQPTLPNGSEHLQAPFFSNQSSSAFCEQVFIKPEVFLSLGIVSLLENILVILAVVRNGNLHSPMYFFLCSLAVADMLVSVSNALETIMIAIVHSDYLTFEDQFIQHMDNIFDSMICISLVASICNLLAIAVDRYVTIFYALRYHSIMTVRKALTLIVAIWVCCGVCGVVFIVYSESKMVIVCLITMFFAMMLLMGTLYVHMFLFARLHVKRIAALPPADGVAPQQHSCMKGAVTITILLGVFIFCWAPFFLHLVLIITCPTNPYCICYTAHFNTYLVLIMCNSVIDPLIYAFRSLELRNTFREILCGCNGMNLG
T2 sequence (P32245 whole entry): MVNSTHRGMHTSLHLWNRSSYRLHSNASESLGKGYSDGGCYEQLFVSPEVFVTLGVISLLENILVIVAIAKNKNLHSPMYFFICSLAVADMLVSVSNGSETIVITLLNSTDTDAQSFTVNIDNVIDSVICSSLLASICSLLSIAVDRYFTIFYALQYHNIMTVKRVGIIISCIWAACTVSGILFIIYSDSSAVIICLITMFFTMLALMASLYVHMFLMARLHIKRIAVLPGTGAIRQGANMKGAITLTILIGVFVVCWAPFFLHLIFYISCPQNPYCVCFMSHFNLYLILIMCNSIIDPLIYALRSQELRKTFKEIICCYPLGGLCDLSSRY

CCCC[C@H](NC(=O)[C@H](CCCNC(=N)N)NC(C)=O)C(=O)N[C@H]1CSSC[C@@H](C(N)=O)NC(=O)[C@H](Cc2c[nH]c3ccccc23)NC(=O)[C@H](CCCNC(=N)N)NC(=O)[C@@H](Cc2ccc(Br)cc2)NC(=O)[C@H](CCCNC(=N)N)NC1=O [CTX-1612, Arg-Nle-cyclo(Cys-Arg-D-Phe(4-Br)-Arg-Trp-Cys)] (Ac-R[Nle]CR[dPhe(4-Br)]RWC-NH2; disulfide 3-8 (inferred))
Emax [1, 3]: 27%
EC50 [1, 3]: 4.5 nM
MC4R selectivity vs MC1R [2]: 0.09
MC4R selectivity vs MC3R [2]: 2.27
Emax [2, 4]: 25%
EC50 [2, 4]: 2 nM

CC(=O)N[C@@H](CCCNC(=N)N)C(=O)N[C@H]1CSSC[C@@H](C(N)=O)NC(=O)[C@@H](Cc2c[nH]c3ccccc23)NC(=O)[C@H](CCCNC(=N)N)NC(=O)[C@@H](Cc2ccc(Br)cc2)NC(=O)[C@@H]2CCCN2C(=O)[C@@H](C)NC1=O [CTX-1249, Arg-cyclo(Cys-D-Ala-Pro-D-Phe(4-Br)-Arg-D-Trp-Cys)] (Ac-RC[dA]P[dPhe(4-Br)]R[dW]C-NH2; disulfide 2-8)
Emax [1, 3]: 1.9%
MC4R selectivity vs MC1R [2]: 5.08
MC4R selectivity vs MC3R [2]: 0.45
Emax [2, 4]: 22%
EC50 [2, 4]: 14 nM

CC(=O)N[C@@H](CCCNC(=N)N)C(=O)N[C@H]1CSSC[C@@H](C(N)=O)NC(=O)[C@@H](Cc2c[nH]c3ccccc23)NC(=O)[C@H](CCCNC(=N)N)NC(=O)[C@@](C)(Cc2ccccc2)NC(=O)[C@H](CCCNC(=N)N)NC(=O)[C@@H](C)NC1=O [CTX-1240, Arg-cyclo(Cys-D-Ala-Arg-aMe-D-Phe-Arg-D-Trp-Cys)] (Ac-RC[dA]R[d(αMeF)]R[dW]C-NH2; disulfide 2-8)
MC3R cAMP % max activation [1, 3]: (27%)
MC4R selectivity vs MC1R [2]: 0.46
MC4R selectivity vs MC3R [2]: 0.41
MC4R cAMP % max activation [2, 4]: (81%)

CCCC[C@H](NC(=O)[C@H](CCCNC(=N)N)NC(C)=O)C(=O)N[C@H]1CSSC[C@@H](C(N)=O)NC(=O)[C@H](Cc2c[nH]c3ccccc23)NC(=O)[C@H](CCCNC(=N)N)NC(=O)[C@@H](Cc2ccc(Br)cc2)NC(=O)[C@H](Cc2c[nH]cn2)NC1=O [CTX-1229, Arg-Nle-cyclo(Cys-His-D-Phe(4-Br)-Arg-Trp-Cys)] (Ac-R[Nle]CH[dPhe(4-Br)]RWC-NH2; disulfide 3-8 (inferred))
Emax [1, 3]: 16%
EC50 [1, 3]: 3.5 nM
Emax [2, 4]: 31%
MC4R selectivity vs MC1R ([2]; cell printed in nM (see doubts)): 18 nM

COc1ccc(C[C@H]2NC(=O)[C@H](CCCNC(=N)N)NC(=O)CNC(=O)[C@@H](NC(C)=O)CSSC[C@@H](C(N)=O)NC(=O)[C@H](Cc3ccccc3)NC(=O)[C@H](CCCNC(=N)N)NC2=O)cc1 [CTX-1641, cyclo(Cys-Gly-Arg-D-Tyr(4-OMe)-Arg-Phe-Cys)] (Ac-CGR[dY](Me)RFC-NH2; disulfide 1-7)
Emax [1, 3]: 22%
EC50 [1, 3]: 52 nM
MC4R selectivity vs MC1R [2]: 0.28
MC4R selectivity vs MC3R [2]: 1.18
Emax [2, 4]: 104%

CC(=O)N[C@@H](CCCNC(=N)N)C(=O)N[C@H]1CSSC[C@@H](C(N)=O)NC(=O)[C@@H](Cc2c[nH]c3ccccc23)NC(=O)[C@H](CCCNC(=N)N)NC(=O)[C@@H](C(c2ccccc2)c2ccccc2)NC(=O)[C@H](CCCNC(=N)N)NC(=O)[C@@H](C)NC1=O [CTX-1280, Arg-cyclo(Cys-D-Ala-Arg-D-Dip-Arg-D-Trp-Cys)] (Ac-RC[dA]R[dDip]R[dW]C-NH2; disulfide 2-8 (inferred))
Emax [1, 3]: 2.6%
MC4R selectivity vs MC1R [2]: 0.1
MC4R selectivity vs MC3R [2]: 1.24
Emax [2, 4]: 4%

CC(=O)N[C@@H](CCCNC(=N)N)C(=O)N[C@H]1CSSC[C@@H](C(=O)N[C@@H](CCCCN)C(=O)N2CCC[C@H]2C(=O)N[C@H](C(N)=O)C(C)C)NC(=O)[C@@H](Cc2c[nH]c3ccccc23)NC(=O)[C@H](CCCNC(=N)N)NC(=O)[C@@H](Cc2ccc(Br)cc2)NC(=O)[C@H](CCCNC(=N)N)NC(=O)[C@@H](C)NC1=O [CTX-1216, Arg-cyclo(Cys-D-Ala-Arg-D-Phe(4-Br)-Arg-D-Trp-Cys)-Lys-Pro-Val] (Ac-RC[dA]R[dPhe(4-Br)]R[dW]CKPV-NH2; disulfide 2-8 (inferred))
Emax [1, 3]: 11%
EC50 [1, 3]: 3.5 nM
MC4R selectivity vs MC1R [2]: 0.82
MC4R selectivity vs MC3R [2]: 1.99
Emax [2, 4]: 69%
EC50 [2, 4]: 1.8 nM

CCCC[C@H](NC(C)=O)C(=O)N[C@H]1CSSC[C@@H](C(=O)N[C@@H](CCCNC(=N)N)C(=O)N[C@@H](Cc2ccccc2)C(=O)NCC(N)=O)NC(=O)[C@@H](Cc2c[nH]c3ccccc23)NC(=O)[C@H](CCCNC(=N)N)NC(=O)[C@H](Cc2ccc3ccccc3c2)NC(=O)[C@H](Cc2c[nH]cn2)NC1=O [CTX-2128, Nle-cyclo(Cys-His-Nal(2′)-Arg-D-Trp-Cys)-Arg-Phe-Gly] (Ac-[Nle]CH[2Nal]R[dW]CRFG-NH2; disulfide 2-7 (inferred))
Emax [1, 5]: 99%
MC4R selectivity vs MC3R [1]: 0.01
Emax [2, 5]: 87%

CC(=O)N[C@@H](CCCNC(=N)N)C(=O)N[C@H]1CSSC[C@@H](C(N)=O)NC(=O)[C@@H](Cc2c[nH]c3ccccc23)NC(=O)[C@@H](CCCNC(=N)N)NC(=O)[C@@H](Cc2ccc(Br)cc2)NC(=O)[C@H](CCCNC(=N)N)NC(=O)[C@@H](C)NC1=O [CTX-1252, Arg-cyclo(Cys-D-Ala-Arg-D-Phe(4-Br)-D-Arg-D-Trp-Cys)] (Ac-RC[dA]R[dPhe(4-Br)][dR][dW]C-NH2; disulfide 2-8 (inferred))
Emax [1, 3]: 1.1%
MC4R selectivity vs MC1R [2]: 0.04
MC4R selectivity vs MC3R [2]: 0.06
Emax [2, 4]: 4.4%

CC(=O)N[C@@H](CCCNC(=N)N)C(=O)N[C@H]1CSSC[C@@H](C(=O)N[C@@H](CCCNC(=N)N)C(=O)N[C@@H](Cc2ccccc2)C(=O)NCC(=O)O)NC(=O)[C@@H](Cc2c[nH]c3ccccc23)NC(=O)[C@H](CCCNC(=N)N)NC(=O)[C@@H](Cc2ccc(Br)cc2)NC(=O)[C@H](CCCNC(=N)N)NC(=O)[C@@H](C)NC1=O [CTX-1219] (Ac-RC[dA]R[dPhe(4-Br)]R[dW]CRFG-OH; disulfide 2-8 (inferred))
Emax [1, 3]: 20%
EC50 [1, 3]: 4.5 nM
MC4R selectivity vs MC1R [2]: 1
MC4R selectivity vs MC3R [2]: 1.99
Emax [2, 4]: 76%
EC50 [2, 4]: 2.3 nM

CC(=O)N[C@@H](CCCNC(=N)N)C(=O)N[C@H]1CSSC[C@@H](C(N)=O)NC(=O)[C@@H](Cc2c[nH]c3ccccc23)NC(=O)[C@H](CCCNC(=N)N)NC(=O)[C@@H](Cc2ccccc2)N(C)C(=O)[C@H](CCCNC(=N)N)NC(=O)[C@@H](C)NC1=O [CTX-1272, Arg-cyclo(Cys-D-Ala-Arg-NMe-D-Phe-Arg-D-Trp-Cys)] (Ac-RC[dA]R[dNMeF]R[dW]C-NH2; disulfide 2-8 (inferred))
Emax [1, 3]: 0.9%
MC4R selectivity vs MC1R [2]: 0.21
MC4R selectivity vs MC3R [2]: 0.9
Emax [2, 4]: 5.3%

CC(=O)N[C@@H](CCCNC(=N)N)C(=O)N[C@H]1CSSC[C@@H](C(N)=O)NC(=O)[C@@H](Cc2c[nH]c3ccccc23)NC(=O)[C@H](CCCNC(=N)N)NC(=O)[C@@H](Cc2ccc(O)cc2)NC(=O)[C@H](CCCNC(=N)N)NC(=O)[C@@H](C)NC1=O [CTX-1237, Arg-cyclo(Cys-D-Ala-Arg-D-Tyr-Arg-D-Trp-Cys)] (Ac-RC[dA]R[dY]R[dW]C-NH2; disulfide 2-8 (inferred))
Emax [1, 3]: 19%
MC4R selectivity vs MC1R [2]: 0.24
MC4R selectivity vs MC3R [2]: 0.08
Emax [2, 4]: 61%

CC(=O)N[C@H]1CSSC[C@@H](C(N)=O)NC(=O)[C@H](Cc2ccccc2)NC(=O)[C@H](CCCNC(=N)N)NC(=O)[C@@H](Cc2ccc(Br)cc2)NC(=O)[C@H](CCCNC(=N)N)NC(=O)CNC1=O [CTX-1640, cyclo(Cys-Gly-Arg-D-Phe(4-Br)-Arg-Phe-Cys)] (Ac-CGR[dPhe(4-Br)]RFC-NH2; disulfide 1-7 (inferred))
Emax [1, 3]: 27%
EC50 [1, 3]: 10 nM
MC4R selectivity vs MC1R [2]: 3.72
MC4R selectivity vs MC3R [2]: 3.09
Emax [2, 4]: 100%

CC(=O)N[C@H]1CSSC[C@@H](C(N)=O)NC(=O)[C@H](Cc2c[nH]c3ccccc23)NC(=O)[C@H](CCCNC(=N)N)NC(=O)[C@@H](Cc2ccccc2)NC(=O)[C@H](Cc2c[nH]cn2)NC(=O)CNC1=O [CTX-1206, cyclo(Cys-Gly-His-D-Phe-Arg-Trp-Cys)] (Ac-CGH[dF]RWC-NH2; disulfide 1-7 (inferred))
Emax [1, 5]: 94%
EC50 ([1]; HEK-293 cells stably expressing hMC3R, agonist mode): 12 nM
MC4R selectivity vs MC3R [1]: 23
Emax [2, 5]: 101%
EC50 ([2]; HEK-293 cells stably expressing hMC4R, agonist mode): 0.52 nM

— US20240391954A1, “MC4R AGONIST PEPTIDES” (The Regents of the University of Michigan, priority 2021, published 2024)
